The source of these data is patent US11242337B2, “Compounds useful for treating gastrointestinal tract disorders” (Ardelyx, Inc., priority 2017, dated 2022).

Experiment [1] has as its target T1, NHE3 (Homo sapiens, UniProt P48764).
T1 construct: expressed in transfected cells
T1 sequence (P48764 26-834): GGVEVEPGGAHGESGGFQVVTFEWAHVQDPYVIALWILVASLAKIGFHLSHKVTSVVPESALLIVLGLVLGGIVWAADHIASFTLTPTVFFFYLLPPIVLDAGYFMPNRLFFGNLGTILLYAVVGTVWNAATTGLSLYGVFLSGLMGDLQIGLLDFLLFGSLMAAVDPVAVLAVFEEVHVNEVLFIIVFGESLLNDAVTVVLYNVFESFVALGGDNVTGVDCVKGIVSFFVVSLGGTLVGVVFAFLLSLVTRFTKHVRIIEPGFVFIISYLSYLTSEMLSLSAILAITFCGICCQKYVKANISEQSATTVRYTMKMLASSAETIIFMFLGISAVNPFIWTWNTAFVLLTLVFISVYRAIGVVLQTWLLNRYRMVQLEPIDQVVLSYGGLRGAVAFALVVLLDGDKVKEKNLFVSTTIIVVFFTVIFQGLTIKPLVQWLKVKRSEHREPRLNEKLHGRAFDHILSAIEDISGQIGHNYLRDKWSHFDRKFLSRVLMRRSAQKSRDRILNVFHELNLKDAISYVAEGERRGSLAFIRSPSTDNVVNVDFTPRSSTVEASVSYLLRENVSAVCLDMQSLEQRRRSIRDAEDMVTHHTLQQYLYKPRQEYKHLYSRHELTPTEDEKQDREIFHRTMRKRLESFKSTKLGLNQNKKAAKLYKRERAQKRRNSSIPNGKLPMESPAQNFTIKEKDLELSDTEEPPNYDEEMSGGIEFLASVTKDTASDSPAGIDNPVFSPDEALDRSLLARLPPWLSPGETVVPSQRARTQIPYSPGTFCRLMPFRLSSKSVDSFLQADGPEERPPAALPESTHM
T1 sequence (Q99653 2-195 partner limits assumed): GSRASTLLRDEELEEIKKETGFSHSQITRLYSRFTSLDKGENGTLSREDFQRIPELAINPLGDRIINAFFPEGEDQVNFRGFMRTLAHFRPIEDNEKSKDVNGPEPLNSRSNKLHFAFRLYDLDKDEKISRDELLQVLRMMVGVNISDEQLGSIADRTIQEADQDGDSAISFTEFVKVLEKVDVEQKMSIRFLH
In words: Cell-based assay of NHE-3 activity (persistent inhibition), human. To be noted: human Persistence, 60 min incubation then washout. In a few lines:
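PS120 fibroblasts expressing human NHE3 with NHERF2 exposed to 0-30 μM compound for 60 min at RT, then washed out; cells acid-loaded by NH4Cl prepulse with BCECF-AM and Na+-free buffer. Na+-driven pH recovery started 10 min post-washout; initial rate of BCECF ratio change (FLIPR) taken as activity.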

Experiment [2] has as its target T1, NHE3. The experiment in a line: Cell-based assay of NHE-3 activity (pre-incubation inhibition), human. Conditions: human Preincubation. In a few lines: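 PS120 fibroblasts stably expressing human NHE3 and NHERF2, loaded 30 min at 37 °C with 5 μM BCECF-AM in NH4Cl buffer, then acidified 10 min at room temperature in Na+-free buffer with 0–30 μM compound. Initial rate of BCECF fluorescence ratio change (FLIPR) per minute taken as Na+/H+ activity.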

On to `Cc1cc(S(=O)(=O)NCCOCCOCCNC(=O)NCCCCNC(=O)NCCOCCOCCNS(=O)(=O)c2cc(C)c(O[C@H]3c4cc(Cl)cc(Cl)c4C[C@@H]3N3CCC[C@@H](N)C3)cc2C)c(C)cc1O[C@H]1c2cc(Cl)cc(Cl)c2C[C@@H]1N1CCC[C@@H](N)C1` [Example 81, 3-[2-(2-[2-[(4-[[(1S,2S)-2-[(3R)-3-Aminopiperidin-1-yl]-4,6-dichloro-2,3-dihydro-1H-inden-1-yl]oxy]-2,5-dimethylbenzene)sulfonamido]ethoxy]ethoxy)ethyl]-1-[4-([[2-(2-[2-[(4-[[(1S,2S)-2-[(3R)-3-aminopiperidin-1-yl]-4,6-dichloro-2,3-dihydro-1H-inden-1-yl]oxy]-2,5-dimethylbenzene)sulfonamido]ethoxy]ethoxy)ethyl]carbamoyl]amino)butyl]urea], for which the “% inhibition” value in experiment [1] and in experiment [2] was “C (>70%)” throughout. Further, the IC50 in experiment [1] is 100 to 1000 nM. Also, the pIC50 entry in experiment [2] (0-30 μM test compound) was “C (NHE3 pIC50 > 7)”.

As for `CN(C)[C@H]1Cc2c(cc(Cl)cc2C(F)(F)F)[C@@H]1Oc1ccc(S(=O)(=O)NCCOCCOCCNC(=O)NCCCCNC(=O)NCCOCCOCCNS(=O)(=O)c2ccc(O[C@H]3c4cc(Cl)cc(C(F)(F)F)c4C[C@@H]3N(C)C)cc2)cc1` [Example 13, 3-[2-(2-[2-[(4-[[(1S,2S)-6-Chloro-2-(dimethylamino)-4-(trifluoromethyl)-2,3-dihydro-1H-inden-1-yl]oxy]benzene)sulfonamido]ethoxy]ethoxy)ethyl]-1-[4-([[2-(2-[2-[(4-[[(1S,2S)-6-chloro-2-(dimethylamino)-4-(trifluoromethyl)-2,3-dihydro-1H-inden-1-yl]oxy]benzene)sulfonamido]ethoxy]ethoxy)ethyl]carbamoyl]amino)butyl]urea], the “% inhibition” value in experiment [1] and in experiment [2] was “A (NHE3 < 40%)” throughout.

Turning to `COc1cc(Cl)cc2c1C[C@H](N(C)C)[C@H]2Oc1ccc(S(=O)(=O)NCCOCCOCCNC(=O)NCCCCNC(=O)NCCOCCOCCNS(=O)(=O)c2ccc(O[C@H]3c4cc(Cl)cc(OC)c4C[C@@H]3N(C)C)cc2)cc1` [Example 15, 3-[2-(2-[2-[(4-[[(1S,2S)-6-Chloro-2-(dimethylamino)-4-methoxy-2,3-dihydro-1H-inden-1-yl]oxy]benzene)sulfonamido]ethoxy]ethoxy)ethyl]-1-[4-([[2-(2-[2-[(4-[[(1S,2S)-6-chloro-2-(dimethylamino)-4-methoxy-2,3-dihydro-1H-inden-1-yl]oxy]benzene)sulfonamido]ethoxy]ethoxy)ethyl]carbamoyl]amino)butyl]urea; bis(trifluoroacetic acid)], in experiment [1], the “% inhibition” value is reported as “A (NHE3 < 40%)” and the pIC50 entry is given as “A (NHE3 pIC50 < 6)”. Also, in experiment [2], the “% inhibition” value is listed as “C (>70%)”. This molecule had an IC50 in experiment [2] (0-30 μM test compound) of 100 to 1000 nM.

For `N[C@@H]1CCCN([C@H]2Cc3c(Cl)cc(Cl)cc3[C@@H]2Oc2ccc(S(=O)(=O)NCCOCCOCCNC(=O)NCCCCNC(=O)NCCOCCOCCNS(=O)(=O)c3ccc(O[C@H]4c5cc(Cl)cc(Cl)c5C[C@@H]4N4CCC[C@@H](N)C4)c(F)c3)cc2F)C1` [Example 2], the “% inhibition” value in experiment [1] and in experiment [2] was “C (>70%)” in each case.

Usually IC50 stands for the concentration at which inhibition is half-maximal. A high value points to a need for much substance.
